How the values were obtained:
[1] = tested on: blackgrass; assay: Test Example 4: herbicidal effect by soil treatment (Table 19, symbol J); format: in vivo, blackgrass (Alopecurus myosuroides); conditions: amount of applied herbicide 320 g/ha
In short: (§1)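 Applied as a water-diluted emulsion, the compound was sprayed onto soil covering newly sown seeds. Evaluation came three weeks after application, in a greenhouse held at 25° C. to 30° C.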

[2] = tested on: barnyard grass; assay: Test Example 4: herbicidal effect by soil treatment (Table 19, symbol H); format: in vivo, barnyard grass (Echinochloa crus-galli); conditions: amount of applied herbicide 320 g/ha
In short: as §1

[3] = tested on: rice flat sedge; assay: Test Example 3: herbicidal effect by foliage application, Wagner pot (Table 18, symbol E); format: in vivo, rice flat sedge (Cyperus iria); conditions: amount of applied herbicide 320 g/ha
In short: (§2)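 Plants were sown in alluvial soil held under 0.1–0.5 cm standing water and grown 14 days in a greenhouse at 25–30 °C. An emulsifiable formulation, water-diluted to the set dose, was then sprayed onto the foliage, and effects were scored three weeks later using previously defined criteria.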

[4] = tested on: Chinese sprangletop; assay: Test Example 3: herbicidal effect by foliage application, Wagner pot (Table 18, symbol D); format: in vivo, chinese sprangletop (Leptochloa chinensis); conditions: amount of applied herbicide 320 g/ha
In short: as §2

[5] = tested on: Italian ryegrass; assay: Test Example 5: herbicidal effect by foliage application, plastic box (Table 20, symbol K); format: in vivo, Italian ryegrass (Lolium multiflorum); conditions: foliage application, 320 g/ha, evaluated three weeks after application
In short: (§3)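 Sow seeds spot-wise in sterilized diluvial soil; cover with ~1.5 cm soil. Grow 14 days in greenhouse, 25° C. to 30° C. Spray foliage with emulsion diluted to predetermined amount. Rate effect after 3 weeks.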

[6] = tested on: velvetleaf; assay: Test Example 4: herbicidal effect by soil treatment (Table 19, symbol M); format: in vivo, velvetleaf (Abutilon theophrasti); conditions: amount of applied herbicide 320 g/ha
In short: as §1

[7] = tested on: oval-leafed pondweed; assay: Test Example 1: herbicidal activity, application before weed generation under submerged conditions (Table 16, symbol C); format: in vivo, oval-leafed pondweed (Monochoria vaginalis); conditions: 320 g/ha applied herbicide
In short: (§4)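 Submerged Wagner pots (alluvial soil, 4 cm water) sown with weed seeds and planted with 2.5-leaf rice seedlings; emulsifiable concentrate diluted in water applied to water surface on sowing day. Held in greenhouse at 25-30 °C; injury scored 0-5 by herbicidal rate after three weeks.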

[8] = tested on: windgrass; assay: Test Example 5: herbicidal effect by foliage application, plastic box (Table 20, symbol L); format: in vivo, windgrass (Apera spica-venti); conditions: foliage application, 320 g/ha, evaluated three weeks after application
In short: as §3

[9] = tested on: green foxtail; assay: Test Example 5: herbicidal effect by foliage application, plastic box (Table 20, symbol G); format: in vivo, green foxtail (Setaria viridis); conditions: foliage application, 320 g/ha, evaluated three weeks after application
In short: as §3

[10] = tested on: barnyard grass; assay: Test Example 5: herbicidal effect by foliage application, plastic box (Table 20, symbol H); format: in vivo, barnyard grass (Echinochloa crus-galli); conditions: foliage application, 320 g/ha, evaluated three weeks after application
In short: as §3

[11] = tested on: Japanese bulrush; assay: Test Example 1: herbicidal activity, application before weed generation under submerged conditions (Table 16, symbol B); format: in vivo, Japanese bulrush (Schoenoplectus juncoides); conditions: 320 g/ha applied herbicide
In short: as §4

[12] = tested on: Italian ryegrass; assay: Test Example 4: herbicidal effect by soil treatment (Table 19, symbol K); format: in vivo, Italian ryegrass (Lolium multiflorum); conditions: amount of applied herbicide 320 g/ha
In short: as §1

[13] = tested on: wild oat; assay: Test Example 4: herbicidal effect by soil treatment (Table 19, symbol I); format: in vivo, wild oat (Avena fatua); conditions: amount of applied herbicide 320 g/ha
In short: as §1

[14] = tested on: wild oat; assay: Test Example 5: herbicidal effect by foliage application, plastic box (Table 20, symbol I); format: in vivo, wild oat (Avena fatua); conditions: foliage application, 320 g/ha, evaluated three weeks after application
In short: as §3

[15] = tested on: southern crabgrass; assay: Test Example 4: herbicidal effect by soil treatment (Table 19, symbol F); format: in vivo, southern crabgrass (Digitaria ciliaris); conditions: amount of applied herbicide 320 g/ha
In short: as §1

[16] = tested on: blackgrass; assay: Test Example 5: herbicidal effect by foliage application, plastic box (Table 20, symbol J); format: in vivo, blackgrass (Alopecurus myosuroides); conditions: foliage application, 320 g/ha, evaluated three weeks after application
In short: as §3

[17] = tested on: barnyard grass; assay: Test Example 3: herbicidal effect by foliage application, Wagner pot (Table 18, symbol H); format: in vivo, barnyard grass (Echinochloa crus-galli); conditions: amount of applied herbicide 320 g/ha
In short: as §2

[18] = tested on: windgrass; assay: Test Example 4: herbicidal effect by soil treatment (Table 19, symbol L); format: in vivo, windgrass (Apera spica-venti); conditions: amount of applied herbicide 320 g/ha
In short: as §1

[19] = tested on: late watergrass; assay: Test Example 1: herbicidal activity, application before weed generation under submerged conditions (Table 16, symbol A); format: in vivo, late watergrass (Echinochloa oryzicola); conditions: 320 g/ha applied herbicide
In short: as §4

[20] = tested on: green foxtail; assay: Test Example 4: herbicidal effect by soil treatment (Table 19, symbol G); format: in vivo, green foxtail (Setaria viridis); conditions: amount of applied herbicide 320 g/ha
In short: as §1

[21] = tested on: lambsquarters; assay: Test Example 5: herbicidal effect by foliage application, plastic box (Table 20, symbol O); format: in vivo, lambsquarters (Chenopodium album); conditions: foliage application, 320 g/ha, evaluated three weeks after application
In short: as §3

[22] = tested on: lambsquarters; assay: Test Example 4: herbicidal effect by soil treatment (Table 19, symbol O); format: in vivo, lambsquarters (Chenopodium album); conditions: amount of applied herbicide 320 g/ha
In short: as §1

[23] = tested on: redroot pigweed; assay: Test Example 5: herbicidal effect by foliage application, plastic box (Table 20, symbol N); format: in vivo, redroot pigweed (Amaranthus retroflexus); conditions: foliage application, 320 g/ha, evaluated three weeks after application
In short: as §3

[24] = tested on: velvetleaf; assay: Test Example 5: herbicidal effect by foliage application, plastic box (Table 20, symbol M); format: in vivo, velvetleaf (Abutilon theophrasti); conditions: foliage application, 320 g/ha, evaluated three weeks after application
In short: as §3

[25] = tested on: southern crabgrass; assay: Test Example 5: herbicidal effect by foliage application, plastic box (Table 20, symbol F); format: in vivo, southern crabgrass (Digitaria ciliaris); conditions: foliage application, 320 g/ha, evaluated three weeks after application
In short: as §3

[26] = tested on: redroot pigweed; assay: Test Example 4: herbicidal effect by soil treatment (Table 19, symbol N); format: in vivo, redroot pigweed (Amaranthus retroflexus); conditions: amount of applied herbicide 320 g/ha
In short: as §1

[27] = tested on: persian speedwell; assay: Test Example 5: herbicidal effect by foliage application, plastic box (Table 20, symbol R); format: in vivo, Persian speedwell (Veronica persica); conditions: foliage application, 320 g/ha, evaluated three weeks after application
In short: as §3

[28] = tested on: chickweed; assay: Test Example 5: herbicidal effect by foliage application, plastic box (Table 20, symbol P); format: in vivo, common chickweed (Stellaria media); conditions: foliage application, 320 g/ha, evaluated three weeks after application
In short: as §3

[29] = tested on: persian speedwell; assay: Test Example 4: herbicidal effect by soil treatment (Table 19, symbol R); format: in vivo, Persian speedwell (Veronica persica); conditions: amount of applied herbicide 320 g/ha
In short: as §1

[30] = tested on: chickweed; assay: Test Example 4: herbicidal effect by soil treatment (Table 19, symbol P); format: in vivo, common chickweed (Stellaria media); conditions: amount of applied herbicide 320 g/ha
In short: as §1

Compound | herbicidal effect on J: blackgrass [1] | herbicidal effect on H: barnyard grass [2] | herbicidal effect on E: rice flat sedge [3] | herbicidal effect on D: Chinese sprangletop [4] | herbicidal effect on K: Italian ryegrass (criteria 0-5) [5] | herbicidal effect on M: velvetleaf [6] | Herbicidal effect on C: oval-leafed pondweed (grade 0-5) [7] | herbicidal effect on L: windgrass (criteria 0-5) [8] | herbicidal effect on G: green foxtail (criteria 0-5) [9] | herbicidal effect on H: barnyard grass (criteria 0-5) [10] | Herbicidal effect on B: Japanese bulrush (grade 0-5) [11] | herbicidal effect on K: Italian ryegrass [12] | herbicidal effect on I: wild oat [13] | herbicidal effect on I: wild oat (criteria 0-5) [14] | herbicidal effect on F: southern crabgrass [15] | herbicidal effect on J: blackgrass (criteria 0-5) [16] | herbicidal effect on H: barnyard grass [17] | herbicidal effect on L: windgrass [18] | Herbicidal effect on A: late watergrass (grade 0-5) [19] | herbicidal effect on G: green foxtail [20] | further results
CCCC(=O)Oc1c(C)nn(C)c(=O)c1-c1c(-c2ccccc2C(F)(F)F)sc2ccc(F)cc12 [2-230] | 0 (Herbicidal rate of 5% or less (almost no effect)) | 0 (Herbicidal rate of 5% or less (almost no effect)) | 5 (Herbicidal rate of 90% or more (almost completely withered)) | 5 (Herbicidal rate of 90% or more (almost completely withered)) | 3 (Herbicidal rate of 40% or more and less than 70%) | 0 (Herbicidal rate of 5% or less (almost no effect)) | 0 (Herbicidal rate of 5% or less (almost no effect)) | 3 (Herbicidal rate of 40% or more and less than 70%) | 3 (Herbicidal rate of 40% or more and less than 70%) | 2 (Herbicidal rate of 20% or more and less than 40%) | 0 (Herbicidal rate of 5% or less (almost no effect)) | 2 (Herbicidal rate of 20% or more and less than 40%) | 0 (Herbicidal rate of 5% or less (almost no effect)) | 0 (Herbicidal rate of 5% or less (almost no effect)) | 0 (Herbicidal rate of 5% or less (almost no effect)) | 0 (Herbicidal rate of 5% or less (almost no effect)) | 4 (Herbicidal rate of 70% or more and less than 90%) | 0 (Herbicidal rate of 5% or less (almost no effect)) | 3 (Herbicidal rate of 40% or more and less than 70%) | 0 (Herbicidal rate of 5% or less (almost no effect)) | herbicidal effect on O: lambsquarters (criteria 0-5) [21]: 4 (Herbicidal rate of 70% or more and less than 90%); herbicidal effect on O: lambsquarters [22]: 0 (Herbicidal rate of 5% or less (almost no effect)); herbicidal effect on N: redroot pigweed (criteria 0-5) [23]: 5 (Herbicidal rate of 90% or more (almost completely withered)); herbicidal effect on M: velvetleaf (criteria 0-5) [24]: 5 (Herbicidal rate of 90% or more (almost completely withered)); herbicidal effect on F: southern crabgrass (criteria 0-5) [25]: 0 (Herbicidal rate of 5% or less (almost no effect)); herbicidal effect on N: redroot pigweed [26]: 0 (Herbicidal rate of 5% or less (almost no effect)); herbicidal effect on R: persian speedwell (criteria 0-5) [27]: 5 (Herbicidal rate of 90% or more (almost completely withered)); herbicidal effect on P: chickweed (criteria 0-5) [28]: 5 (Herbicidal rate of 90% or more (almost completely withered)); herbicidal effect on R: persian speedwell [29]: 0 (Herbicidal rate of 5% or less (almost no effect)); herbicidal effect on P: chickweed [30]: 3 (Herbicidal rate of 40% or more and less than 70%)
Cc1nn(C)c(=O)c(-c2c(-c3cccc(OC(F)(F)F)c3)sc3ccc(F)cc23)c1O [2-236] | 0 (Herbicidal rate of 5% or less (almost no effect)) | 0 (Herbicidal rate of 5% or less (almost no effect)) | 5 (Herbicidal rate of 90% or more (almost completely withered)) | 3 (Herbicidal rate of 40% or more and less than 70%) | 0 (Herbicidal rate of 5% or less (almost no effect)) | 0 (Herbicidal rate of 5% or less (almost no effect)) | 2 (Herbicidal rate of 20% or more and less than 40%) | 1 (Herbicidal rate of 5% or more and less than 20%) | 3 (Herbicidal rate of 40% or more and less than 70%) | 0 (Herbicidal rate of 5% or less (almost no effect)) | 3 (Herbicidal rate of 40% or more and less than 70%) | 0 (Herbicidal rate of 5% or less (almost no effect)) | 0 (Herbicidal rate of 5% or less (almost no effect)) | 0 (Herbicidal rate of 5% or less (almost no effect)) | 0 (Herbicidal rate of 5% or less (almost no effect)) | 0 (Herbicidal rate of 5% or less (almost no effect)) | 4 (Herbicidal rate of 70% or more and less than 90%) | 0 (Herbicidal rate of 5% or less (almost no effect)) | 3 (Herbicidal rate of 40% or more and less than 70%) | 0 (Herbicidal rate of 5% or less (almost no effect)) | herbicidal effect on O: lambsquarters (criteria 0-5) [21]: 2 (Herbicidal rate of 20% or more and less than 40%); herbicidal effect on O: lambsquarters [22]: 1 (Herbicidal rate of 5% or more and less than 20%); herbicidal effect on N: redroot pigweed (criteria 0-5) [23]: 5 (Herbicidal rate of 90% or more (almost completely withered)); herbicidal effect on M: velvetleaf (criteria 0-5) [24]: 1 (Herbicidal rate of 5% or more and less than 20%); herbicidal effect on F: southern crabgrass (criteria 0-5) [25]: 0 (Herbicidal rate of 5% or less (almost no effect)); herbicidal effect on N: redroot pigweed [26]: 2 (Herbicidal rate of 20% or more and less than 40%); herbicidal effect on R: persian speedwell (criteria 0-5) [27]: 3 (Herbicidal rate of 40% or more and less than 70%); herbicidal effect on P: chickweed (criteria 0-5) [28]: 5 (Herbicidal rate of 90% or more (almost completely withered)); herbicidal effect on R: persian speedwell [29]: 0 (Herbicidal rate of 5% or less (almost no effect)); herbicidal effect on P: chickweed [30]: 0 (Herbicidal rate of 5% or less (almost no effect))
